Experiment [1] has as its target T1, S1P1 (Homo sapiens, UniProt P21453). Nature of the experiment: Tango β-arrestin Recruitment Assay in HEK293 cells (Assay 2a). Particulars: Tango β-arrestin Recruitment Assay, read-out: Assay 2a EC50. Details: linker with TEV protease (N1a) cleavage site (C); host or cells: HEK293, transiently transfected. The class given is cell-based. An outline of the steps:
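Agonist-driven β-arrestin2–TEV recruitment releases tTA to drive luciferase in transiently transfected HEK293 cells. Ten 3-fold dilutions from 10 μM top (1% DMSO), 16–18 h at 37 °C; EC50 fitted to percent activity versus DMSO background and 5 μM S1P efficacy control.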
(Arrestin recruitment assays detect the binding of arrestin to an activated receptor.)
Target sequence in this assay (P21453 whole entry): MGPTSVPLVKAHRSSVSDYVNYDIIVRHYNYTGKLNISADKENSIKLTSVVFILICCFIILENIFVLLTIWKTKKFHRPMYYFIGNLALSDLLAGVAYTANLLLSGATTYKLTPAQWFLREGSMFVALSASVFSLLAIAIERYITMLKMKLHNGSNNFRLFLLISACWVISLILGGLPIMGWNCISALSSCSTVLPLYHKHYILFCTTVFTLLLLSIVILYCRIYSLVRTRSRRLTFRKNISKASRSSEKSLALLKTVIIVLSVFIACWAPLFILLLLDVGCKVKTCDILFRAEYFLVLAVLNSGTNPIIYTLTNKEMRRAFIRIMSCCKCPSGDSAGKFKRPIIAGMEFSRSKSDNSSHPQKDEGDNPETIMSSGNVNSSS
Target sequence in this assay (P32121 whole entry partner): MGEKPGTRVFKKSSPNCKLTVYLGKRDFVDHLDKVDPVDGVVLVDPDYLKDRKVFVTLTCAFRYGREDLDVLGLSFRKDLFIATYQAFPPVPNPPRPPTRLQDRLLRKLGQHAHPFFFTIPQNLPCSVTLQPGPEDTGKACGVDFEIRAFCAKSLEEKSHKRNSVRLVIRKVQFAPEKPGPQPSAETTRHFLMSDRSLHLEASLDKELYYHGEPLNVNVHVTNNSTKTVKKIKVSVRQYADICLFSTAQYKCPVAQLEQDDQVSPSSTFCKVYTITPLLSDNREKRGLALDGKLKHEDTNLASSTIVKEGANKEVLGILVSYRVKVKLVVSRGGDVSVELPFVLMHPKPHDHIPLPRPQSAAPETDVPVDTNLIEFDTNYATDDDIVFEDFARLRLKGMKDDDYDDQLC

Experiment [2] has as its target T1, S1P1. Nature of the experiment: CNG cAMP Assay (Assay 1). The class given is cell-based. Details: host or cells: HEK293 cells expressing the CNG channel. As to conditions: read-out: Assay 1 EC50. Put shortly: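 cAMP-gated CNG membrane-potential read-out (350/590 nm, T90/T0 ratio) in S1P1/CNG HEK293 cells after 90 min with compound plus NECA 500 nM, S1P 10 nM (EC95), Ro 20-1724 25 μM. Ten 3-fold points from 10 μM, 1.8% DMSO; percent activity vs NECA-only control gives EC50.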
Target sequence in this assay (P21453 whole entry): as the sequence (P21453 whole entry) above

In experiment [3] the target is T1, S1P1. Nature of the experiment: DELFIA GTP-Eu Binding Assay (Assay 3b). The class given is biochemical. Details: purchased Lonza; host or cells: CHO cell membranes. How it is done: The DELFIA GTP-Eu binding assay (PerkinElmer) is a time-resolved fluorometric assay based on GDP-GTP exchange. CHO cell membranes (Lonza) expressing human S1P1 were incubated in 96-well filter plates (Pall, East Hills, N.Y.) in a final volume of 100 μL/well buffer containing 40 μg/mL membrane, 50 mM HEPES, 2 μM GDP, 10 mM MgCl2, 100 mM NaCl, 500 μg/mL Saponin and test compound. Test compounds were tested at maximum concentrations of 10 μM. Compounds were diluted (10 concentration points, 3-fold each) and added to the assay plate at a 1% final DMSO concentration. For each compound, there were duplicate assay plates and each assay plate had duplicate wells per concentration point. The plates were incubated for 30 min at room temperature on a plate shaker at low speed. GTP-Eu was added to each well (10 μL, 10 nM final concentration) and the plate was incubated for an additional 30 min with slow shaking The wells were washed with ice cold GTP washing buffer (3×150 μL) using a vacuum manifold and the assay plates read in an EnVision plate reader (PerkinElmer) at an excitation wavelength of 340 nm and an emission wavelength of 615 nm. To determine agonist activity, percent activity was calculated as [(test compound−background)/(positive control−background)*100], where background is the fluorescence in absence of compound and the positive control is the fluorescence from membranes incubated with 1 μM S1P (Avanti). The percent activities were plotted against compound concentration to determine IC50 or EC50 using XLFit (IDBS).
Assay 1 is the CNG cAMP Assay as described in Biological Example 1. Assay 2a and 2b are the Tango™ β-arrestin Recruitment Assay in HEK293 and U2OS cells, respectively, as described in Biological Example 2. Assay 3a is the hS1P1R GTPγS Binding Assay as described in Biological Example 3. Assay 3b is the GTP-Eu Binding Assay as described in Biological Example 3. EC50's were measured unless otherwise noted. […] In the table, “nt” means the Compound was not tested and “no” means the compound was tested but had no measurable activity under the assay conditions employed.
Target sequence in this assay (P21453 whole entry): as above

The target in experiment [4] is T2, hS1P1R (hEdg1) (Homo sapiens, UniProt P21453).
T2 construct: purchased Lonza
T2 sequence (P21453 whole entry): as above
Nature of the experiment: hS1P1R GTPγS Binding Assay (Assay 3a). The class given is biochemical. An outline of the steps: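 Human S1P1 receptor membranes (4 μg) incubated 1 h at room temperature with 30 μM GDP, 0.1 nM [35S]GTPγS, 0.25% fatty-acid-free BSA and serially diluted agonist in pH 7.9 Tris buffer with Mg2+ and EGTA. Bound radioactivity read by WGA SPA after a further 1 h; EC50 reported unless noted.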

Experiment [5] deals with T1, S1P1. Nature of the experiment: Tango β-arrestin Recruitment Assay in U2OS cells (Assay 2b). The class given is cell-based. Details: linker with TEV protease (N1a) cleavage site (C). Particulars: Tango β-arrestin Recruitment Assay, read-out: Assay 2b EC50. An outline of the steps:
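Agonist EC50 from percent activity relative to 1 μM S1P efficacy control, using background-subtracted 460/530 nm emission ratios. Compounds (max 1 μM, ten 3-fold dilutions) incubated overnight at 37 °C with serum-starved S1P1 U2OS reporter cells, followed by 2 h β-lactamase reagent at room temperature.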
Target sequence in this assay (P21453 whole entry): as above
Target sequence in this assay (P32121 whole entry partner): as the sequence (P32121 whole entry partner) above

Setting [6] is: footnote 1: Relative EC50 was measured, read-out: Assay 3b Relative EC50.

Each structure is given as a SMILES string.

By EC50 is commonly meant the concentration needed to bring the measured effect to its halfway point. As for `O=C(O)CCc1ccc(-c2noc(-c3cn4cc(C(F)(F)F)cc(Cl)c4n3)n2)cc1Cl` [Entry 7], the EC50 in experiment [1] was ≤ 100 nM; in experiment [2], ≤ 100 nM; in experiment [3] (relative EC50 was measured (footnote 1), read-out: Assay 3b Relative EC50) it was 100 to 500 nM; in experiment [4] it was 1000 to 5000 nM.
As for `Cc1cc(C2CC2C(=O)O)c(F)cc1-c1noc(-c2cn3cc(C(F)(F)F)cc(Cl)c3n2)n1` (centres unmarked) [Example 79, 2-(4-{5-[8-chloro-6-(trifluoromethyl)imidazo[1,2-a]pyridin-2-yl]-1,2,4-oxadiazol-3-yl}-2-fluoro-5-methylphenyl)cyclopropanecarboxylic acid], the EC50 in experiment [1] is ≤ 100 nM; in experiment [2], ≤ 100 nM; in experiment [3] (read-out: Assay 3b EC50), 100 to 500 nM; in experiment [4] it was 500 to 1000 nM.
For the compound `C[C@@H](CO)Oc1cc(Cl)c(-c2noc(-c3cn4cc(C(F)(F)F)cc(Cl)c4n3)n2)cc1F` [Example 96, (2S)-2-[(5-chloro-4-{5-[8-chloro-6-(trifluoromethyl)imidazo[1,2-a]pyridin-2-yl]-1,2,4-oxadiazol-3-yl}-2-fluorophenyl)oxy]propan-1-ol], the EC50 in experiment [1] is ≤ 100 nM; in experiment [2], ≤ 100 nM; in experiment [3] (read-out: Assay 3b EC50), 100 to 500 nM; in experiment [4] it was ≤ 100 nM.
Regarding `CC(C)Cc1cc(Cl)c2nc(-c3nc(-c4cc(F)c(CCC(=O)O)cc4Cl)no3)cn2c1` [Example 149, 3-(5-chloro-4-{5-[8-chloro-6-(2-methylpropyl)imidazo[1,2-a]pyridin-2-yl]-1,2,4-oxadiazol-3-yl}-2-fluorophenyl)propanoic acid], the EC50 in experiment [1], in experiment [2] and in experiment [3] (setting [6]) was ≤ 100 nM in each case.
As to `Cc1cc(C(C)CC(=O)O)ccc1-c1noc(-c2cn3cc(C(F)(F)F)cc(Br)c3n2)n1` (centres unmarked) [Example 153, 3-(4-{5-[8-bromo-6-(trifluoromethyl)imidazo[1,2-a]pyridin-2-yl]-1,2,4-oxadiazol-3-yl}-3-methylphenyl)butanoic acid], the EC50 in experiment [1] was 100 to 500 nM; in experiment [2] it was ≤ 100 nM; in experiment [3] (setting [6]), 500 to 1000 nM.
On to `Cc1cc(-c2noc(-c3cn4cc(C(F)(F)F)cc(Cl)c4n3)n2)cc(C)c1OCC(O)CO` (centres unmarked) [Example 161, 3-[(4-{5-[8-chloro-6-(trifluoromethyl)imidazo[1,2-a]pyridin-2-yl]-1,2,4-oxadiazol-3-yl}-2,6-dimethylphenyl)oxy]propane-1,2-diol], for which the EC50 was ≤ 100 nM in experiment [1], ≤ 100 nM in experiment [2], 100 to 500 nM in experiment [3] (read-out: Assay 3b EC50) and ≤ 100 nM in experiment [4].
Turning to `CC(CC(=O)O)c1ccc(-c2noc(-c3cn4cc(C(F)(F)F)cc(Cl)c4n3)n2)c(Cl)c1` (centres unmarked) [Example 172, 3-(3-chloro-4-{5-[8-chloro-6-(trifluoromethyl)imidazo[1,2-a]pyridin-2-yl]-1,2,4-oxadiazol-3-yl}phenyl)butanoic acid], the EC50 is 100 to 500 nM in experiment [1], ≤ 100 nM in experiment [2] and 1000 to 5000 nM in experiment [3] (read-out: Assay 3b EC50).
For `NCC(O)COc1cc(Cl)c(-c2noc(-c3cn4cc(C(F)(F)F)cc(Cl)c4n3)n2)cc1Cl` (centres unmarked) [Example 226, 1-amino-3-[(2,5-dichloro-4-{5-[8-chloro-6-(trifluoromethyl)imidazo[1,2-a]pyridin-2-yl]-1,2,4-oxadiazol-3-yl}phenyl)oxy]propan-2-ol], in that order: ≤ 100 nM, ≤ 100 nM and 500 to 1000 nM.
As to `O=C(O)CCc1cc(Cl)c(-c2nc(-c3cn4cc(C(F)(F)F)cc(Br)c4n3)no2)cc1F` [Example 238, 3-(4-{3-[8-bromo-6-(trifluoromethyl)imidazo[1,2-a]pyridin-2-yl]-1,2,4-oxadiazol-5-yl}-5-chloro-2-fluorophenyl)propanoic acid], the EC50 was ≤ 100 nM in experiment [1], ≤ 100 nM in experiment [2] and 100 to 500 nM in experiment [3] (read-out: Assay 3b EC50).
Regarding `CS(=O)(=O)Nc1ccc(-c2nnc(-c3cn4cc(C(F)(F)F)cc(Cl)c4n3)s2)c(Cl)c1` [Example 239, N-(3-chloro-4-{5-[8-chloro-6-(trifluoromethyl)imidazo[1,2-a]pyridin-2-yl]-1,3,4-thiadiazol-2-yl}phenyl)methanesulfonamide], the EC50 was ≤ 100 nM in experiment [1], ≤ 100 nM in experiment [2], ≤ 100 nM in experiment [5] and 100 to 500 nM in experiment [3] (read-out: Assay 3b EC50).
Regarding `NCCOc1ccc(-c2nnc(-c3cn4cc(C(F)(F)F)cc(Cl)c4n3)s2)c(Cl)c1` [Example 244, 2-[(3-chloro-4-{5-[8-chloro-6-(trifluoromethyl)imidazo[1,2-a]pyridin-2-yl]-1,3,4-thiadiazol-2-yl}phenyl)oxy]ethanamine], the EC50 was 100 to 500 nM in experiment [1], ≤ 100 nM in experiment [2], 500 to 1000 nM in experiment [3] (read-out: Assay 3b EC50) and 100 to 500 nM in experiment [4].
For the compound `CC(CO)Oc1ccc(-c2noc(-c3cn4cc(C(F)(F)F)cc(Cl)c4n3)n2)c(Cl)c1` (centres unmarked) [Example 256, 2-[(3-chloro-4-{5-[8-chloro-6-(trifluoromethyl)imidazo[1,2-a]pyridin-2-yl]-1,2,4-oxadiazol-3-yl}phenyl)oxy]propan-1-ol], the EC50 in experiment [1] was ≤ 100 nM; in experiment [2], ≤ 100 nM; in experiment [3] (read-out: Assay 3b EC50), 100 to 500 nM; in experiment [4], 500 to 1000 nM.
As for `NCCOc1ccc(-c2noc(-c3cn4cc(C(F)(F)F)cc(Cl)c4n3)n2)c(Cl)c1` [Example 257, 2-[(3-chloro-4-{5-[8-chloro-6-(trifluoromethyl)imidazo[1,2-a]pyridin-2-yl]-1,2,4-oxadiazol-3-yl}phenyl)oxy]ethanamine], the EC50 in experiment [1] was ≤ 100 nM; in experiment [2], ≤ 100 nM; in experiment [5], 100 to 500 nM; in experiment [3] (read-out: Assay 3b EC50), 100 to 500 nM.
For `CC(CO)Oc1cc(Cl)c(-c2noc(-c3cn4cc(C(F)(F)F)cc(Cl)c4n3)n2)cc1F` (centres unmarked) [Example 259, 2-[(5-chloro-4-{5-[8-chloro-6-(trifluoromethyl)imidazo[1,2-a]pyridin-2-yl]-1,2,4-oxadiazol-3-yl}-2-fluorophenyl)oxy]propan-1-ol], the EC50 in experiment [1] was ≤ 100 nM; in experiment [2] it was ≤ 100 nM; in experiment [3] (read-out: Assay 3b EC50), 100 to 500 nM; in experiment [4] it was ≤ 100 nM.
As to `O=C(O)CCc1ccc(-c2nnc(-c3cn4cc(C(F)(F)F)cc(Cl)c4n3)s2)c(Cl)c1` [Example 283, 3-(3-chloro-4-{5-[8-chloro-6-(trifluoromethyl)imidazo[1,2-a]pyridin-2-yl]-1,3,4-thiadiazol-2-yl}phenyl)propanoic acid], the concentration for a half-maximal effect (EC50) was ≤ 100 nM in experiment [1], ≤ 100 nM in experiment [2], 100 to 500 nM in experiment [3] (read-out: Assay 3b EC50) and 100 to 500 nM in experiment [4].
`Cc1c(I)ccc2nc(-c3nc(-c4cc(F)c(CCC(=O)O)cc4Cl)no3)cn12` [Example 300, 3-{5-chloro-2-fluoro-4-[5-(6-iodo-5-methylimidazo[1,2-a]pyridin-2-yl)-1,2,4-oxadiazol-3-yl]phenyl}propanoic acid]: the EC50 is ≤ 100 nM in experiment [1], ≤ 100 nM in experiment [2], 100 to 500 nM in experiment [3] (read-out: Assay 3b EC50) and 1000 to 5000 nM in experiment [4].

These data come from US20100160369A1, “S1P1 Agonists and Methods of Making And Using” (EXELIXIS, INC., priority 2008, published 2010).
